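Briefly, cells in 96-well plates were exposed to five compound concentrations for 48 h, and endpoints were estimated by linear interpolation. At the GI50, growth is halved.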 Activity calls are given as the source filed them. No stated cut-off is given here; in the data, active = GI50 up to about 1.1 µM and inactive = higher.
What was measured:
Test in all cases: inhibition of tumour cell growth, NCI panel, 48 h
[1] = tested on: HCT-116
[2] = tested on: NCI-H522
[3] = tested on: A549
[4] = tested on: SK-MEL-5
[5] = tested on: CAKI-1
[6] = tested on: OVCAR-8
[7] = tested on: BT-549
[8] = tested on: OVCAR-3
[9] = tested on: SF-539
[10] = tested on: NCI-H23
[11] = tested on: OVCAR-4
[12] = tested on: U-251
[13] = tested on: HOP-62
[14] = tested on: SK-OV-3
[15] = tested on: SNB-75
[16] = tested on: SK-MEL-2
[17] = tested on: NCI/ADR-RES
[18] = tested on: ACHN
[19] = tested on: Malme-3M
[20] = tested on: HCC 2998

Row | SMILES | GI50 [1] | GI50 [2] | GI50 [3] | GI50 [4] | GI50 [5] | GI50 [6] | GI50 [7] | GI50 [8] | GI50 [9] | GI50 [10] | GI50 [11] | GI50 [12] | GI50 [13] | GI50 [14] | GI50 [15] | GI50 [16] | GI50 [17] | GI50 [18] | GI50 [19] | GI50 [20]
1 | [N-]=[N+]=Nc1ccc(NCCCCCC(=O)ON2C(=O)CCC2=O)c([N+](=O)[O-])c1 | 39.6 µM (inactive) | 39.3 µM (inactive) | 78.9 µM (inactive) | 41.1 µM (inactive) | 34.4 µM (inactive) | 60.3 µM (inactive) | > 100 µM (inactive) | 54.3 µM (inactive) | 30.5 µM (inactive) | 66.7 µM (inactive) | > 100 µM (inactive) | > 100 µM (inactive) | 72.9 µM (inactive) | > 100 µM (inactive) | 72.9 µM (inactive) | 42.4 µM (inactive) | 31.1 µM (inactive) | 49.1 µM (inactive) | 27.9 µM (inactive) | –
2 | CC1=NOC2(C1)C(=O)Nc1ccccc12 (stereo unspecified) | > 100 µM (inactive) | > 100 µM (inactive) | > 100 µM (inactive) | 60.5 µM (inactive) | 30.3 µM (inactive) | > 100 µM (inactive) | – | > 100 µM (inactive) | > 100 µM (inactive) | > 100 µM (inactive) | > 100 µM (inactive) | > 100 µM (inactive) | > 100 µM (inactive) | > 100 µM (inactive) | 66.2 µM (inactive) | > 100 µM (inactive) | 44.5 µM (inactive) | > 100 µM (inactive) | > 100 µM (inactive) | > 100 µM (inactive)
3 | CN(C)CCCOc1nc2c(c(=O)n(C)c(=O)n2C)n1C.SC1=NC=NC2=NC=NC12 | 5.62 µM (inactive) | 2.79 µM (inactive) | 22 µM (inactive) | 11.1 µM (inactive) | 1.02 µM (active) | 22.2 µM (inactive) | 11.3 µM (inactive) | 0.656 µM (active) | 1.7 µM (inactive) | 6.71 µM (inactive) | 2.25 µM (inactive) | 18.1 µM (inactive) | 18.5 µM (inactive) | 23.9 µM (inactive) | 6.12 µM (inactive) | 6.52 µM (inactive) | 4.32 µM (inactive) | 6.84 µM (inactive) | 0.634 µM (active) | –
4 | CCOC(=O)c1c(N)sc2c1C(C(=O)OCC)CC2 (stereo unspecified) | 48.4 µM (inactive) | – | > 100 µM (inactive) | > 100 µM (inactive) | – | > 100 µM (inactive) | 72.3 µM (inactive) | – | – | > 100 µM (inactive) | – | 73.3 µM (inactive) | > 100 µM (inactive) | – | 79.3 µM (inactive) | > 100 µM (inactive) | – | > 100 µM (inactive) | 74.1 µM (inactive) | > 100 µM (inactive)
5 | O=C(CSCC(=O)N/N=C\c1cc(Br)cc(Br)c1O)N/N=C\c1cc(Br)cc(Br)c1O | 19.6 µM (inactive) | 11.7 µM (inactive) | 76.6 µM (inactive) | 25 µM (inactive) | 23.4 µM (inactive) | 18.9 µM (inactive) | 37.4 µM (inactive) | 17.6 µM (inactive) | 20 µM (inactive) | 48.4 µM (inactive) | 14.4 µM (inactive) | 4.28 µM (inactive) | 29.9 µM (inactive) | 53.5 µM (inactive) | 24 µM (inactive) | 9.55 µM (inactive) | 29.4 µM (inactive) | 12.9 µM (inactive) | 14.4 µM (inactive) | –
6 | O=S(=O)(N/C(=N\O)Nc1ccc(Cl)cc1)c1cc(C(F)(F)F)cc(C(F)(F)F)c1 | 17.5 µM (inactive) | 18.9 µM (inactive) | 18.1 µM (inactive) | 18 µM (inactive) | 16.9 µM (inactive) | 18.7 µM (inactive) | 18.7 µM (inactive) | 16 µM (inactive) | 22.3 µM (inactive) | 19.9 µM (inactive) | 15 µM (inactive) | 16.6 µM (inactive) | 18.7 µM (inactive) | 18.6 µM (inactive) | 16 µM (inactive) | 17.4 µM (inactive) | 24.9 µM (inactive) | 17.3 µM (inactive) | 18 µM (inactive) | –
7 | Cc1nc2ccccc2c(=O)n1NC(=O)c1ccccc1[N+](=O)[O-] | > 100 µM (inactive) | > 100 µM (inactive) | > 100 µM (inactive) | > 100 µM (inactive) | – | > 10 µM (inactive) | > 100 µM (inactive) | > 100 µM (inactive) | > 100 µM (inactive) | > 100 µM (inactive) | > 100 µM (inactive) | > 100 µM (inactive) | > 100 µM (inactive) | > 100 µM (inactive) | 81.5 µM (inactive) | – | > 100 µM (inactive) | > 100 µM (inactive) | > 100 µM (inactive) | > 100 µM (inactive)
8 | c1ccc2c(c1)ccc1cc3cc(NCCCCNc4ccc5nc6c(ccc7ccccc76)cc5c4)ccc3nc12 | 0.176 µM (active) | 1.91 µM (inactive) | 1.51 µM (inactive) | 1.32 µM (inactive) | 2.01 µM (inactive) | 0.167 µM (active) | 2 µM (inactive) | 1.99 µM (inactive) | 1.35 µM (inactive) | 2 µM (inactive) | 2.22 µM (inactive) | 0.199 µM (active) | 0.212 µM (active) | 2.37 µM (inactive) | 1.91 µM (inactive) | 1.91 µM (inactive) | 2.11 µM (inactive) | 1.39 µM (inactive) | 1.55 µM (inactive) | –
9 | CCC(C)c1cnc(CC(C)C)c(=O)[nH]1 (stereo unspecified) | > 100 µM (inactive) | – | > 100 µM (inactive) | > 100 µM (inactive) | > 100 µM (inactive) | > 100 µM (inactive) | > 100 µM (inactive) | > 100 µM (inactive) | – | > 100 µM (inactive) | > 100 µM (inactive) | > 100 µM (inactive) | > 100 µM (inactive) | > 100 µM (inactive) | > 100 µM (inactive) | > 100 µM (inactive) | – | > 100 µM (inactive) | – | > 100 µM (inactive)
10 | COC(=O)C(/C(=N/N)C(=O)Nc1cc(Cl)c(Cl)cc1Cl)c1nc2ccc(Cl)cc2nc1O (stereo unspecified) | > 100 µM (inactive) | 38.9 µM (inactive) | > 100 µM (inactive) | > 100 µM (inactive) | > 100 µM (inactive) | > 100 µM (inactive) | > 100 µM (inactive) | 95.3 µM (inactive) | > 100 µM (inactive) | > 100 µM (inactive) | 2.79 µM (inactive) | > 100 µM (inactive) | > 100 µM (inactive) | > 100 µM (inactive) | > 100 µM (inactive) | > 100 µM (inactive) | 84.5 µM (inactive) | 44.8 µM (inactive) | > 100 µM (inactive) | –
11 | C/C(=N/S(=O)(=O)c1ccc(Cl)c(Cl)c1)OCC(C)(C)C | > 100 µM (inactive) | > 100 µM (inactive) | > 100 µM (inactive) | > 100 µM (inactive) | > 100 µM (inactive) | > 100 µM (inactive) | > 100 µM (inactive) | > 100 µM (inactive) | > 100 µM (inactive) | > 100 µM (inactive) | > 100 µM (inactive) | > 100 µM (inactive) | > 100 µM (inactive) | > 100 µM (inactive) | > 100 µM (inactive) | > 100 µM (inactive) | > 100 µM (inactive) | > 100 µM (inactive) | > 100 µM (inactive) | –
12 | O=C(N/N=C/c1ccc(Br)cc1)N/N=C/c1ccc(Br)cc1 | 3.53 µM (inactive) | – | 16 µM (inactive) | 14.1 µM (inactive) | 4.66 µM (inactive) | 5.08 µM (inactive) | 20.9 µM (inactive) | 3.81 µM (inactive) | – | 22.9 µM (inactive) | 2.37 µM (inactive) | 6.24 µM (inactive) | 5.56 µM (inactive) | 2.43 µM (inactive) | – | 75.5 µM (inactive) | 5.6 µM (inactive) | 4.94 µM (inactive) | 3.05 µM (inactive) | 17.3 µM (inactive)
13 | Cc1ncc([N+](=O)[O-])n1CCN(C)CCCCn1ccnc1[N+](=O)[O-] | > 100 µM (inactive) | – | > 100 µM (inactive) | > 100 µM (inactive) | > 100 µM (inactive) | > 100 µM (inactive) | > 100 µM (inactive) | > 100 µM (inactive) | > 100 µM (inactive) | > 100 µM (inactive) | > 100 µM (inactive) | > 100 µM (inactive) | > 100 µM (inactive) | > 100 µM (inactive) | > 100 µM (inactive) | > 100 µM (inactive) | – | > 100 µM (inactive) | > 100 µM (inactive) | > 100 µM (inactive)
14 | O=C1CCC2c3ccccc3NCN12 (stereo unspecified) | > 100 µM (inactive) | > 100 µM (inactive) | > 100 µM (inactive) | > 100 µM (inactive) | > 100 µM (inactive) | > 100 µM (inactive) | – | > 100 µM (inactive) | > 100 µM (inactive) | > 100 µM (inactive) | > 100 µM (inactive) | > 100 µM (inactive) | > 100 µM (inactive) | > 100 µM (inactive) | > 100 µM (inactive) | > 100 µM (inactive) | > 100 µM (inactive) | > 100 µM (inactive) | > 100 µM (inactive) | > 100 µM (inactive)
15 | CCN(CC(COc1ccc2c(c1)[n+]([O-])nc(N)[n+]2[O-])OC(C)=O)C(C)=O (stereo unspecified) | 78.7 µM (inactive) | 16.4 µM (inactive) | 68.2 µM (inactive) | 32 µM (inactive) | > 100 µM (inactive) | 42.1 µM (inactive) | > 100 µM (inactive) | 76.2 µM (inactive) | > 100 µM (inactive) | 49.5 µM (inactive) | 50.5 µM (inactive) | > 100 µM (inactive) | 45.9 µM (inactive) | 15.2 µM (inactive) | 35.8 µM (inactive) | > 100 µM (inactive) | > 100 µM (inactive) | > 100 µM (inactive) | – | –

Reference: ChEMBL document CHEMBL1201862, “PubChem BioAssay data set” (2004)
